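Interpolation was linear, between the two tested concentrations surrounding the appropriate level; five concentrations were tested over 48 hours in 96-well plates. GI50: concentration for 50% inhibition of growth.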 Activity calls are given as the source filed them. Rule as the data show it: active = GI50 up to about 1.1 µM and inactive = higher.
Assays:
Experiment in all cases: NCI tumour cell line growth inhibition, 48 h
NCI-H23 = test system: NCI-H23
CAKI-1 = test system: CAKI-1
HCT-116 = test system: HCT-116
A549 = test system: A549
HT-29 = test system: HT-29
MCF7 = test system: MCF7
PC-3 = test system: PC-3
SW-620 = test system: SW-620
SF-295 = test system: SF-295
LOX IMVI = test system: LOX IMVI
HOP-62 = test system: HOP-62
MOLT-4 = test system: MOLT-4
UACC-257 = test system: UACC-257
KM12 = test system: KM12
NCI-H522 = test system: NCI-H522
786-0 = test system: 786-0
NCI-H460 = test system: NCI-H460
HOP-92 = test system: HOP-92
OVCAR-3 = test system: OVCAR-3
UO-31 = test system: UO-31
OVCAR-4 = test system: OVCAR-4
SNB-19 = test system: SNB-19
OVCAR-5 = test system: OVCAR-5
NCI-H226 = test system: NCI-H226
SN12C = test system: SN12C
SR = test system: SR
HCT-15 = test system: HCT-15
SK-MEL-5 = test system: SK-MEL-5
SK-MEL-2 = test system: SK-MEL-2
Malme-3M = test system: Malme-3M
SF-268 = test system: SF-268
T47D = test system: T47D
OVCAR-8 = test system: OVCAR-8
COLO 205 = test system: COLO 205
RPMI-8226 = test system: RPMI-8226
EKVX = test system: EKVX
DU-145 = test system: DU-145
SK-OV-3 = test system: SK-OV-3
TK-10 = test system: TK-10
HCC 2998 = test system: HCC 2998
NCI/ADR-RES = test system: NCI/ADR-RES
HL-60 = test system: HL-60
BT-549 = test system: BT-549
K562 = test system: K562
UACC-62 = test system: UACC-62
SK-MEL-28 = test system: SK-MEL-28
MDA-MB-231 = test system: MDA-MB-231
IGROV-1 = test system: IGROV-1
SF-539 = test system: SF-539
ACHN = test system: ACHN
M14 = test system: M14
CCRF-CEM = test system: CCRF-CEM
RXF 393 = test system: RXF 393
U-251 = test system: U-251
MDA-N = test system: MDA-N
MDA-MB-435 = test system: MDA-MB-435
SNB-75 = test system: SNB-75

In the case of `CC(C)c1ccc(/C=C2\CSCC3=C2N=C(S)NC3c2ccc(C(C)C)cc2)cc1` (stereo not given), the GI50 (NCI-H23) is reported as 46.5 µM (inactive), the GI50 (CAKI-1) is reported as > 100 µM (inactive) and the GI50 (HCT-116) is reported as 44.9 µM (inactive). For the same compound, the GI50 (A549) was 80.9 µM (inactive), the GI50 (HT-29) was 45.1 µM (inactive) and the GI50 (MCF7) was 88.3 µM (inactive). The GI50 (PC-3) was 28.9 µM (inactive), the GI50 (SW-620) was > 100 µM (inactive) and the GI50 (SF-295) was 75.9 µM (inactive). For the same compound, the GI50 (LOX IMVI) was 51.6 µM (inactive), the GI50 (HOP-62) was > 100 µM (inactive) and the GI50 (MOLT-4) was 29.6 µM (inactive). The GI50 (UACC-257) was 34.6 µM (inactive), the GI50 (KM12) was > 100 µM (inactive) and the GI50 (NCI-H522) was 53.6 µM (inactive). For the same compound, the GI50 (786-0) was > 100 µM (inactive), the GI50 (NCI-H460) was > 100 µM (inactive) and the GI50 (HOP-92) was 68.5 µM (inactive). The GI50 (OVCAR-3) was > 100 µM (inactive), the GI50 (UO-31) was 70.6 µM (inactive) and the GI50 (OVCAR-4) was > 100 µM (inactive). The GI50 (SNB-19) was > 100 µM (inactive), the GI50 (OVCAR-5) was > 100 µM (inactive) and the GI50 (NCI-H226) was > 100 µM (inactive). The GI50 (SN12C) was > 100 µM (inactive), the GI50 (SR) was 53.3 µM (inactive) and the GI50 (HCT-15) was 89.5 µM. For the same compound, the GI50 (SK-MEL-5) was 27.2 µM (inactive), the GI50 (SK-MEL-2) was > 100 µM (inactive) and the GI50 (Malme-3M) was 36.1 µM (inactive). For the same compound, the GI50 (SF-268) was > 100 µM (inactive), the GI50 (T47D) was 80.4 µM (inactive) and the GI50 (OVCAR-8) was > 100 µM (inactive). For the same compound, the GI50 (COLO 205) was > 100 µM (inactive), the GI50 (RPMI-8226) was 67.6 µM (inactive) and the GI50 (EKVX) was 61.8 µM (inactive). For the same compound, the GI50 (DU-145) was > 100 µM (inactive), the GI50 (SK-OV-3) was > 100 µM (inactive) and the GI50 (TK-10) was > 100 µM (inactive). For the same compound, the GI50 (HCC 2998) was 67.6 µM (inactive), the GI50 (NCI/ADR-RES) was > 100 µM (inactive) and the GI50 (HL-60) was 59.2 µM (inactive). The GI50 (BT-549) was > 100 µM (inactive), the GI50 (K562) was 34.8 µM (inactive) and the GI50 (UACC-62) was 88.3 µM (inactive). For the same compound, the GI50 (SK-MEL-28) was > 100 µM (inactive), the GI50 (MDA-MB-231) was > 100 µM (inactive) and the GI50 (IGROV-1) was > 100 µM (inactive). The GI50 (SF-539) was > 100 µM (inactive), the GI50 (ACHN) was > 100 µM (inactive) and the GI50 (M14) was > 100 µM (inactive). The GI50 (CCRF-CEM) was 35.8 µM (inactive), the GI50 (RXF 393) was 30.9 µM (inactive) and the GI50 (U-251) was 85.1 µM (inactive). For the same compound, the GI50 (MDA-N) was > 100 µM (inactive).
`C1CSCC2(COC2)CSCCSCC2(COC2)CS1` was tested, and the GI50 (NCI-H23) was > 100 µM (inactive), the GI50 (HCT-116) was > 100 µM (inactive) and the GI50 (MDA-MB-435) was > 100 µM (inactive). The GI50 (A549) was > 100 µM (inactive), the GI50 (HT-29) was > 100 µM (inactive) and the GI50 (MCF7) was > 100 µM (inactive). For the same compound, the GI50 (PC-3) was > 100 µM (inactive), the GI50 (SW-620) was > 100 µM (inactive) and the GI50 (SF-295) was > 100 µM (inactive). For the same compound, the GI50 (LOX IMVI) was > 100 µM (inactive), the GI50 (HOP-62) was > 100 µM (inactive) and the GI50 (MOLT-4) was > 100 µM (inactive). The GI50 (UACC-257) was > 100 µM (inactive), the GI50 (KM12) was > 100 µM (inactive) and the GI50 (NCI-H522) was > 100 µM (inactive). The GI50 (786-0) was > 100 µM (inactive), the GI50 (NCI-H460) was > 100 µM (inactive) and the GI50 (HOP-92) was > 100 µM (inactive). The GI50 (OVCAR-3) was > 100 µM (inactive), the GI50 (UO-31) was > 100 µM (inactive) and the GI50 (OVCAR-4) was > 100 µM (inactive). For the same compound, the GI50 (SNB-19) was > 100 µM (inactive), the GI50 (OVCAR-5) was > 100 µM (inactive) and the GI50 (SN12C) was > 100 µM (inactive). For the same compound, the GI50 (SR) was > 100 µM (inactive), the GI50 (HCT-15) was over 100 µM and the GI50 (SK-MEL-5) was > 100 µM (inactive). For the same compound, the GI50 (SF-268) was > 100 µM (inactive), the GI50 (T47D) was > 100 µM (inactive) and the GI50 (OVCAR-8) was > 100 µM (inactive). The GI50 (COLO 205) was > 100 µM (inactive), the GI50 (SNB-75) was 35.6 µM (inactive) and the GI50 (EKVX) was > 100 µM (inactive). For the same compound, the GI50 (DU-145) was > 100 µM (inactive), the GI50 (SK-OV-3) was > 100 µM (inactive) and the GI50 (TK-10) was > 100 µM (inactive). The GI50 (HCC 2998) was > 100 µM (inactive), the GI50 (NCI/ADR-RES) was > 100 µM (inactive) and the GI50 (HL-60) was > 100 µM (inactive). The GI50 (BT-549) was > 100 µM (inactive), the GI50 (K562) was > 100 µM (inactive) and the GI50 (UACC-62) was > 100 µM (inactive). The GI50 (SK-MEL-28) was > 100 µM (inactive), the GI50 (MDA-MB-231) was > 100 µM (inactive) and the GI50 (IGROV-1) was > 100 µM (inactive). The GI50 (SF-539) was > 100 µM (inactive), the GI50 (M14) was > 100 µM (inactive) and the GI50 (CCRF-CEM) was > 100 µM (inactive). For the same compound, the GI50 (U-251) was > 100 µM (inactive) and the GI50 (MDA-N) was > 100 µM (inactive).

— ChEMBL document CHEMBL1201862, “PubChem BioAssay data set” (2004)
